The source of these data is patent US20260265334A1, “STAPLED PEPTIDES” (THE FLOREY INSTITUTE OF NEUROSCIENCE AND MENTAL HEALTH, priority 2023, published 2026).

The subject of data set [1] is mouse model of inflammatory persistent pain. Nature of the data set: CFA model of inflammatory persistent pain. The class given is in vivo. Conditions: co-injection with RXFP3 agonist. As to the method: Pilot studies were conducted in a mouse model of inflammatory persistent pain obtained by intraplantar injection of Complete Freund's Adjuvant (CFA). […] The effect is maximal at 30 minutes after the injection and vanished after 1 hour. The same result has been obtained in a rat CFA model with a similar time course of the antinociceptive effect.

Data set [2] concerns the target T1, RXFP3 (Homo sapiens, UniProt Q9NSD7).
T1 construct: expressed in transfected cells
T1 sequence (Q9NSD7 1-469): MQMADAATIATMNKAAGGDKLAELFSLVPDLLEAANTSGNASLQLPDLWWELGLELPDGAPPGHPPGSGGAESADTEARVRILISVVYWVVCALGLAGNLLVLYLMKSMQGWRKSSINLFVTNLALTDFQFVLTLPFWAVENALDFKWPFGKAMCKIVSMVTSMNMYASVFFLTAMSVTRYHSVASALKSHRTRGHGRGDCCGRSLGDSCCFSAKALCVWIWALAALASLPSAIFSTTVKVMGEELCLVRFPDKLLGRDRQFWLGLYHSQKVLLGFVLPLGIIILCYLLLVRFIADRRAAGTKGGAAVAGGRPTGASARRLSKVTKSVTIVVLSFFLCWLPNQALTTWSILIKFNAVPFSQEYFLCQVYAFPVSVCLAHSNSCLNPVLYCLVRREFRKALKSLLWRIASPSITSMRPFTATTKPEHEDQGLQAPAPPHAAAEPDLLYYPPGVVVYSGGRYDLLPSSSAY
Nature of the data set: Eu-H3B1-22R competition binding assay in CHO-K1-RXFP3 cells. As to conditions: 5 nM Eu-H3B1-22R, mean ± SEM (n), Table 2, read-out: Eu-H3B1-22R pKi (converted). As to the method: An Eu-H3B1-22R competition binding assay was conducted in CHO-K1-RXFP3 cells.
Competition binding curves for each peptide were performed in triplicate and each experiment was performed independently at least three times. Fluorescent measurements were carried out at excitation of 340 nm and emission of 614 nm on a BMG POLARstar plate reader (BMG Labtech, Melbourne, Australia). Pooled data were presented as mean±S.E.M. of specific binding and are fitted using a one-site binding curve in GraphPad Prism version 8 (GraphPad Inc., San Diego, USA). Statistical analyses were conducted using one-way analysis of variance with uncorrected Fisher's least significant difference (LSD) post-hoc analysis in GraphPad Prism version 9.
(§1) Competition binding and cAMP activity assay were conducted by a procedure analogous to that described above for Example 3. The results are shown in FIG. 24 (RXFP3) and FIG. 25 (RXFP4).

The target of data set [3] is T1, RXFP3. Briefly: Inhibition of forskolin-induced cAMP activity in CHO-K1-RXFP3 cells (pCRE β-galactosidase reporter). The data set is classed as cell-based. Conditions: 5 μM forskolin, 6 hours, Table 2, read-out: cAMP pEC50 (converted). As to the method:
Since RXFP3 is coupled to Gi/o proteins, peptides were tested for their ability to activate RXFP3 as measured via their ability to inhibit forskolin-induced cAMP activity in CHO-K1-RXFP3 or CHO-K1-RXFP4 cells transfected with a pCRE (cAMP Response Element) β-galactosidase reporter plasmid (as described in Belgi, A et al., Structure and function relationship of murine insulin-like peptide 5 (INSL5): free C-terminus is essential for RXFP4 receptor binding and activation. Biochemistry 2011, 50 (39), 8352-61; and Haugaard-Kedstrom, L. M et al., Synthesis and pharmacological characterization of a europium-labelled single-chain antagonist for binding studies of the relaxin-3 receptor RXFP3. Amino Acids 2015, 47 (6), 1267-71). For agonist assays, cells were stimulated with forskolin (5 μM for RXFP3, 1 μM for RXFP4)±increasing concentrations of each peptide for 6 hours. Data were expressed as the % forskolin activity, whereby 100% was defined as forskolin alone and 0% as maximum agonist stimulation (1 μM Analogue 2 for RXFP3 and 1 μM Analogue 13 for RXFP4). Data were analysed and plotted using GraphPad Prism 9 and are expressed as the mean±SEM of the pooled data. Statistical analysis was conducted using one-way ANOVA with Uncorrected Fisher's LSD post-hoc analysis using GraphPad Prism 9.
as §1

Data set [4] deals with T2, RXFP3 (Homo sapiens, UniProt Q9NSD7).
T2 construct: expressed in transfected cells; host or cells: HEK293T (transient, Lipofectamine 2000, pcDNA3.1/Zeo(+))
Nature of the data set: NanoBRET β-arrestin2 recruitment assay, RXFP3-NLuc / Venus-β-arrestin2 in HEK293T cells. The data set is classed as cell-based. As to the method: (§2) The inventors assessed if H3B10-27(13/17αF) retained the ability to recruit β-arrestin2 and therefore display full agonist activity at RXFP3 and RXFP4, in comparison to Peptide 5.
The RXFP3 β-arrestin2 recruitment assay was carried out by PCR cloning NLuc onto the C-terminus of human RXFP3 in an identical manner to the RXFP3-rLuc8 construct to create pcDNA3.1-RXFP3-NLuc. The construct was sequenced on both strands to confirm that the NLuc was in frame with RXFP3 and there were no additional PCR mutations. pcDNA3.1-RXFP3-NL was tested in parallel with pcDNA3.1-RXFP3 in cAMP activity assays to determine if the C-terminal nanoluciferase fusion affected agonist activity.
For NanoBRET β-arrestin2 recruitment assays, HEK293T cells were plated onto a six-well plate, and were transfected the following day with β-arrestin2-Venus and either RXFP3-Nluc or RXFP4-Nluc, in the pcDNA3.1/Zeo(+) vector, using Lipofectamine 2000. The next day, cells were washed with DPBS and resuspended in complete media containing 25 mM HEPES but no phenol red, and were seeded into a 96-well CulturPlate (PerkinElmer). […] Emissions were detected simultaneously using a PHERAstar FSX plate reader (BMG Labtech) with 450/80 nm and 535/30 nm filters. Ligand-induced BRET ratio was calculated by subtracting the ratio of 535/30 nm emissions to 450/80 nm emissions for vehicle from the same ratio for ligand-treated wells. […]
T2 sequence (P32121 whole entry partner, one chain of several): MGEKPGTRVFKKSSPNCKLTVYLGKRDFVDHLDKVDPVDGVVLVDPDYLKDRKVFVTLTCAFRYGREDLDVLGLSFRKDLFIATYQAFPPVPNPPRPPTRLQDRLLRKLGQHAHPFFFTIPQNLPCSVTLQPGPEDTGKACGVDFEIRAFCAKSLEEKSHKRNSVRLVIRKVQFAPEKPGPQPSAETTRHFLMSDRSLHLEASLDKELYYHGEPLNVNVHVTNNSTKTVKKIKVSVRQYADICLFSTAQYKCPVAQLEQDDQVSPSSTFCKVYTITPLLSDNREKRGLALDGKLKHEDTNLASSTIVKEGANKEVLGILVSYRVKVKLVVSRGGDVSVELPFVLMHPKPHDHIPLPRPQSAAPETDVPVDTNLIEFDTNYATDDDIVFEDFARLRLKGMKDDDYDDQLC
For orientation: In BRET a luciferase serves as donor, and the signal depends on an acceptor being close.

Data set [5] addresses T3, RXFP4 (Homo sapiens, UniProt Q8TDU9). Briefly: Eu-R3/I5 competition binding assay in CHO-K1-RXFP4 cells. Also noted: expressed in transfected cells.
Target sequence in this assay (Q8TDU9 whole entry): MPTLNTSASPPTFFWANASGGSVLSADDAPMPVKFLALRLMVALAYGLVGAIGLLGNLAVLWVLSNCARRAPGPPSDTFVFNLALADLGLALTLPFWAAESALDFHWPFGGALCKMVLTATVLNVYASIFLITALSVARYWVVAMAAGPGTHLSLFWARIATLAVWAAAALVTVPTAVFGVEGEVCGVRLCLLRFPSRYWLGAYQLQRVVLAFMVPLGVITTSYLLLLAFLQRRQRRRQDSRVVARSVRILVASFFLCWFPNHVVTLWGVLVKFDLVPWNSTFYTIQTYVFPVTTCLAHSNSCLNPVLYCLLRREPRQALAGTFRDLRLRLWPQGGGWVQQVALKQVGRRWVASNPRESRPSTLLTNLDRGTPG
Data set [6] concerns the target T3, RXFP4. Nature of the data set: Inhibition of forskolin-induced cAMP activity in CHO-K1-RXFP4 cells (pCRE β-galactosidase reporter). The data set is classed as cell-based. Also noted: expressed in transfected cells.
Target sequence in this assay (Q8TDU9 whole entry): as above
The nature of data set [7]: In vitro serum stability in human serum at 37° C. As to conditions: human serum.
Procedure: Human serum (400 μl) was mixed with 200 μg peptide dissolved in 100 μl of water at 37° C. Eighty (80) μl of sample was removed at various time points (0 min, 30 min, 60 min, 120 min, 240 min, and 480 min), and 160 μl of acetonitrile added to precipitate plasma proteins. The solution was then centrifuged at 12000 rpm for 15 min at 4° C. 200 μl of supernatant was taken and mixed with 240 μl of milli-Q water and each sample analysed by RP-HPLC (2×80 μL injection) by measuring the area under the peak at appropriate retention times compared to the peak area of the peptide at time zero (100%). Data analysis (n=3, duplicate) was performed using a non-linear fit one-phase decay model in GraphPad Prism 9.
The target of data set [8] is T3, RXFP4. Nature of the data set: NanoBRET β-arrestin2 recruitment assay, RXFP4-NLuc / Venus-β-arrestin2 in HEK293T cells. The class given is cell-based. On the set-up: expressed in transfected cells; host or cells: HEK293T (transient, Lipofectamine 2000, pcDNA3.1/Zeo(+)). As to conditions: AUC of the entire time course; text of b227; read-out: pEC50, RXFP4 β-arrestin2 recruitment (converted). The procedure:
as §2
Target sequence in this assay (Q8TDU9 whole entry): as above
Target sequence in this assay (P32121 whole entry partner): as the sequence (P32121 whole entry partner, one chain of several) above
For NanoBRET β-arrestin2 recruitment assays, HEK293T cells were plated onto a six-well plate, and were transfected the following day with β-arrestin2-Venus and either RXFP3-Nluc or RXFP4-Nluc, in the pcDNA3.1/Zeo(+) vector, using Lipofectamine 2000. The next day, cells were washed with DPBS and resuspended in complete media containing 25 mM HEPES but no phenol red, and were seeded into a 96-well CulturPlate (PerkinElmer). The next day, prior to the assay, cells were pre-incubated in phenol red free media with NLuc substrate, 5 μM coelenterazine 400a for RXFP3-nLuc and 5 μM coelenterazine h for RXFP4-NLuc (both from Nanolight, Pinetop, AZ, USA) to establish a baseline, before addition of ligand or vehicle. Emissions were detected simultaneously using a PHERAstar FSX plate reader (BMG Labtech) with 450/80 nm and 535/30 nm filters. Ligand-induced BRET ratio was calculated by subtracting the ratio of 535/30 nm emissions to 450/80 nm emissions for vehicle from the same ratio for ligand-treated wells. […]

The test system of another data set is C57B16 mice. Nature of the data set: Colorectal propulsion (bead expulsion) in loperamide-constipated mice. As to conditions: 20 μg/kg i.p., 10 minutes after loperamide 1 mg/kg s.c. The data set is classed as in vivo, mouse. The procedure: Male C57B16 mice (20-30 g; ARC), between the ages of 3 to 5 months, were used for all studies. All experiments were conducted in accordance with the National Health and Medical Research Council (NHMRC) guidelines for the care and use of animals and with approval from the Florey Institute of Neuroscience and Mental Health Animal Ethics Committee (#18-128 FINMH and #18-081 FINMH). All animals were group housed (2-6 per cage) and maintained in a humidity-controlled room at 22° C. under a 12 hours light/dark cycle with access to food and water ad libitum.
Loperamide (Sigma-Aldrich) was prepared in 1% Tween-80 (SigmaAldrich) in distilled water and was administered subcutaneously (s.c.) at the back of the neck to induce constipation. Mice were injected with either vehicle (1% Tween-80/water) or loperamide (0.3, 1, 3 mg/kg). INSL5-A13 (20 μg/kg) (SEQ ID NOs 9 and 10) and single-chain αF stapled analogue (200 μg/kg) (SEQ ID NO 16) were dissolved in distilled water and injected intraperitoneally (i.p.) 10 minutes after loperamide was administered (1 mg/kg, s.c.). At 20 minutes post peptide injection, mice were lightly anesthetized with 2% (v/v) isoflurane in O2, administered at 1 L/min for a maximum of 15 seconds following induction with 5% isoflurane in O2 at 1 L/min. […] The time taken from bead insertion to bead expulsion was recorded. […] The time was scored as 30 minutes. […]

Bridge positions count the residues as written; N and C are the ends. Square brackets hold non-standard residues; d marks the D form. Peptide text beside a SMILES is read from it. I, II: the chains in the order shown. αMeF = C[C@](N)(Cc1ccccc1)C(=O)O

Regarding “R3(B1-22): R3(B1-22) RXFP3 antagonist, co-injected in pain model; possibly the same as H3B1-22R (RAAPYGVRLSGREFIRAVIFTSR)”, the “effect of co-injection on the antinociceptive effects of the agonists” value in data set [1] was “fully abolished”.
As to `CC[C@H](C)[C@H](NC(=O)[C@H](Cc1ccccc1)NC(=O)[C@](C)(Cc1ccccc1)NC(=O)[C@H](CCCNC(=N)N)NC(=O)CNC(=O)[C@@H](N)CO)C(=O)N[C@@H](CCCNC(=N)N)C(=O)N[C@@](C)(Cc1ccccc1)C(=O)N[C@H](C(=O)N[C@H](C(=O)N[C@@H](Cc1ccccc1)C(=O)N[C@H](C(=O)N[C@@H](CO)C(=O)NCC(=O)NCC(=O)N[C@@H](CO)C(=O)N[C@@H](CCCNC(=N)N)C(=O)N[C@@H](Cc1c[nH]c2ccccc12)C(=O)O)[C@@H](C)O)[C@@H](C)CC)C(C)C` [H3B10-27(13/17αF)] (H-SGR[αMeF]FIR[αMeF]VIFTSGGSRW-OH), the Ki on RXFP3 [2] is 148 nM; at RXFP4 [5] (RXFP4, CHO-K1-RXFP4 cells, 5 nM Eu-R3/I5, Table 3, read-out: Eu-R3/I5 pKi (converted)), 155 nM. Also, the EC50 on RXFP3 [3] was 6.92 nM; at RXFP3 [4] (AUC of NanoBRET time course, Table 4, read-out: RXFP3 pEC50 (β-arrestin2 recruitment) (converted)), 64.6 nM; at RXFP3 [4] (AUC of the entire time course, text of b227, read-out: pEC50, RXFP3 β-arrestin2 recruitment (converted)) it was 89.1 nM; at RXFP4 [6] (RXFP4, CHO-K1-RXFP4 cells, 1 μM forskolin, 6 hours, Table 3, read-out: cAMP pEC50 (converted)) it was 55 nM; on RXFP4 [8], 2690 nM. Also, in data set [7], the half-life (in general, the time in which the quantity being followed falls by half) at 400 µg/mL was about 5 h.
As for `CC[C@H](C)[C@@H]1NC(=O)[C@H](Cc2ccc(O)cc2)NC(=O)[C@H]([C@@H](C)CC)NC(=O)[C@H](C(C)C)NC(=O)[C@H]([C@@H](C)O)NC(=O)[C@H](CCCNC(=N)N)NC(=O)[C@H]([C@@H](C)CC)NC(=O)[C@H](Cc2ccc(O)cc2)NC(=O)[C@H](CCC(=O)O)NC(=O)[C@H](CC(C)C)NC(=O)CNC(=O)[C@@H](NC(=O)[C@H](CC(C)C)NC(=O)[C@H](CCCNC(=N)N)NC(=O)[C@@H](NC(=O)[C@H](CO)NC(=O)[C@H](CCC(=O)O)NC(=O)[C@@H](N)CCCCN)C(C)C)CSSC[C@H](N)C(=O)N[C@@H]([C@@H](C)O)C(=O)N[C@@H](CC(=O)O)C(=O)NCC(=O)N[C@@H](C)C(=O)N[C@@H](CO)C(=O)N[C@@H](CCSC)C(=O)N[C@@H](CCCCN)C(=O)N[C@@H](CC(=O)O)C(=O)N[C@@H](CC(C)C)C(=O)N[C@@H](CO)C(=O)N[C@@H](C)C(=O)N[C@@H](CC(C)C)C(=O)N[C@H](C(=O)O)CSSC[C@@H](C(=O)N[C@@H](C)C(=O)N[C@@H](CO)C(=O)N[C@@H](CO)C(=O)N[C@@H](CCCNC(=N)N)C(=O)N[C@@H](Cc2c[nH]c3ccccc23)C(=O)O)NC1=O` [INSL5-A13] (I: H-KESVRLCGLEYIRTVIYICASSRW-OH / II: H-CTDGASMKDLSALC-OH; disulfide I:7-II:1, I:19-II:14; N-terminus and C-terminus assumed), the “colorectal propulsion (bead expulsion)” value in the data set on C57B16 mice was “effective in accelerating colorectal propulsion”. The “Eu-R3/I5 pKi” value at RXFP4 [5] (RXFP4, Table 5) is listed as 7.46 ± 0.06 (7). For the same compound, the “cAMP pEC50” value on RXFP4 [6] (RXFP4, Table 5) is 8.10 ± 0.10 (4).
